Measured values as given in patent US4146710A, “Solid cephalosporin salt” (Takeda Chemical Industries, Ltd., priority 1976, dated 1979).
Converted amounts (≈) assume the structure as drawn. Where a name gives a salt, the structure may show the parent alone. Read-outs that look alike come from different tables or passages of the source.

Legend:
[1] = Storage stability in sealed vial at 50° C. for 4 weeks, % residue; type: physicochemical; conditions: 40320 min
Method: One sample each of the following compounds was stored in a sealed vial at 50° C. for 4 weeks.
The sodium salt, zwitter ion, and monohydrochloride of 7β-[2-(2-imino-4-thiazoline-4-yl)acetamido]-3-[1-[2-(N,N-dimethylamino)ethyl]-1H-tetrazol-5-yl]thiomethyl-3-cephem-4-carboxylic acid, as well as the lyophilized powders of said acid dihydrochloride (amorphous powders, Example 4-(2)), the crystals of said acid dihydrochloride (Example 1-(3)) and the non-crystalline powders obtained by drying said dihydrochloride crystals (Example 1-(4)) as obtained in accordance with this invention.
The percent residue figures are as follows.

[2] = test system: Bacillus subtilis ATCC 6633; assay: Bioassay by the cylinder method; type: cell-based
Method: The bioassay by the cylinder method was carried out using 7β-[2-(2-imino-4-thiazolin-4-yl)acetamido]-3-[1-[2-(N,N-dimethylamino)ethyl]-1H-tetrazol-5-yl]thiomethyl-3-cephem-4-carboxylic acid .2H Cl salt as the standard product against Bacillus subtilis ATCC 6633 as the assay microorganism.
The potency of the anhydrous zwitter ion compound was 1000 mcg/ml. The calculated potency of a sample containing 2 moles of HCl per mole of the zwitter ion compound and none of non-bonding hydrochloric acid, water, residual solvent or other impurity is 878 mcg/ml.

[3] = test system: Escherichia coli NIHJ JC-2; assay: Antibacterial spectrum (agar dilution), MIC; type: cell-based; conditions: NIHJJC2, on anhydrate basis, E. coli NIHJ JC-2
Text: (§1) The antibacterial potency (in terms of MIC) and toxicity of the contemplated compound (I) on anhydrate basis
(§2) (1) Antibacterial spectrum (agar dilution)

[4] = test system: Escherichia coli O-111; assay: Antibacterial spectrum (agar dilution), MIC; type: cell-based; conditions: O111, on anhydrate basis, E. coli O-111
Text: as §1, §2

[5] = test system: Escherichia coli T-7; assay: Antibacterial spectrum (agar dilution), MIC; type: cell-based; conditions: T7, on anhydrate basis, E. coli T-7
Text: as §1, §2

[6] = test system: Klebsiella pneumoniae DT; assay: Antibacterial spectrum (agar dilution), MIC; type: cell-based; conditions: on anhydrate basis, K. pneumoniae DT
Text: as §1, §2

[7] = test system: Proteus morganii IFO 3848; assay: Antibacterial spectrum (agar dilution), MIC; type: cell-based; conditions: Morganella morganii, IFO3848, on anhydrate basis, P. morganii IFO 3848
Text: as §1, §2

[8] = test system: Proteus vulgaris IFO 3988; assay: Antibacterial spectrum (agar dilution), MIC; type: cell-based; conditions: IFO3988, on anhydrate basis, P. vulgaris IFO 3988
Text: as §1, §2

[9] = test system: Staphylococcus aureus 1840; assay: Antibacterial spectrum (agar dilution), MIC; type: cell-based; conditions: on anhydrate basis, S. aureus 1840
Text: as §1, §2

[10] = test system: Staphylococcus aureus FDA 209 P; assay: Antibacterial spectrum (agar dilution), MIC; type: cell-based; conditions: FDA209, on anhydrate basis, S. aureus FDA 209 P
Text: as §1, §2

[11] = Acute toxicity (mouse, intraperitoneal); conditions: in vivo, ip, 1:1 (by mole) mixture of compound (I) and sodium carbonate, anhydrate basis, read-out: CD50 (the source's name)
Text: as §1
(2) Acute toxicity (mouse, intraperitoneal)
The acute toxicity data relates to a 1:1 (by mole) mixture of contemplated compound (I) and sodium carbonate.

[12] = Stability in storage / shelf-life (statement); type: physicochemical
[13] = Water solubility (statement); type: physicochemical
[14] = West German Patent Application Laid Open No. 2461478; cited from earlier work

For `CN(C)CCn1nnnc1SCC1=C(C(=O)O)N2C(=O)[C@@H](NC(=O)Cc3csc(N)n3)[C@H]2SC1` [Example 1-(3), 7β-[2-(2-imino-4-thiazolin-4-yl)acetamido]-3-[1-[2-(N,N-dimethylamino)ethyl]-1H-tetrazol-5-yl]thiomethyl-3-cephem-4-carboxylic acid], the “% Residue” value [1] was 99%.

With `CN(C)CCn1nnnc1SCC1=C(C(=O)O)N2C(=O)[C@@H](NC(=O)Cc3csc(N)n3)[C@H]2SC1` [Example 1-(4), 7β-[2-(2-imino-4-thiazolin-4-yl)acetamido]-3-[1-[2-(N,N-dimethylamino)ethyl]-1H-tetrazol-5-yl]thiomethyl-3-cephem-4-carboxylic acid] the “% Residue” value [1] was 98%.

In the case of `CN(C)CCn1nnnc1SCC1=C(C(=O)O)N2C(=O)[C@@H](NC(=O)Cc3csc(N)n3)[C@H]2SC1` [Example 4-(2), 7β-[2-(2-imino-4-thiazolin-4-yl)acetamido]-3-[1-[2-(N,N-dimethylamino)ethyl]-1H-tetrazol-5-yl]thiomethyl-3-cephem-4-carboxylic acid], the “% Residue” value [1] is reported as 86%.

With `CN(C)CCn1nnnc1SCC1=C(C(=O)O)N2C(=O)[C@@H](NC(=O)Cc3csc(=N)[nH]3)[C@H]2SC1` [Example 7-(3), 5β-[2-(2-imino-4-thiazolin-4-yl)acetamido]-3-[1-[2-(N,N-dimethylamino)ethyl]-1H-tetrazol-5-yl]thiomethyl-3-cephem-4-carboxylic acid] the “Bioassay (potency)” value [2] was 865 µg/mL.

For `CN(C)CCn1nnnc1SCC1=C(C(=O)O)N2C(=O)[C@@H](NC(=O)Cc3csc(N)n3)[C@H]2SC1` [Monohydrochloride (lyophilizate), 7β-[2-(2-imino-4-thiazoline-4-yl)acetamido]-3-[1-[2-(N,N-dimethylamino)ethyl]-1H-tetrazol-5-yl]thiomethyl-3-cephem-4-carboxylic acid, reference compound], the “% Residue” value [1] was 73%.

For `CN(C)CCn1nnnc1SCC1=C(C(=O)O)N2C(=O)[C@@H](NC(=O)Cc3csc(N)n3)[C@H]2SC1` [Sodium salt (lyophilizate), 7β-[2-(2-imino-4-thiazoline-4-yl)acetamido]-3-[1-[2-(N,N-dimethylamino)ethyl]-1H-tetrazol-5-yl]thiomethyl-3-cephem-4-carboxylic acid, reference compound], the “% Residue” value [1] was 76%.

For `CN(C)CCn1nnnc1SCC1=C(C(=O)O)N2C(=O)[C@@H](NC(=O)Cc3csc(N)n3)[C@H]2SC1` [compound (I)], the MIC [3] was 0.2 µg/mL (≈ 0.38 µM), the MIC [4] was 0.05 µg/mL (≈ 0.0951 µM) and the MIC [5] was 1.56 µg/mL (≈ 2.97 µM). For the same molecule, the MIC [6] was 0.1 µg/mL (≈ 0.19 µM), the MIC [7] was 0.39 µg/mL (≈ 0.742 µM) and the MIC [8] was 1.56 µg/mL (≈ 2.97 µM). It also gave an MIC [9] of 0.78 µg/mL (≈ 1.48 µM), an MIC [10] of 0.39 µg/mL (≈ 0.742 µM) and an LD50 [11] of no less than 20000 mg/kg. The stability in storage [12] was “highly stable in storage”.

For `CN(C)CCn1nnnc1SCC1=C(C(=O)O)N2C(=O)[C@@H](NC(=O)Cc3csc(N)n3)[C@H]2SC1` [compound (II), 7β-[2-(2-imino-4-thiazolin-4-yl)acetamido]-3-[1-[2-(N,N-dimethylamino)ethyl]-1H-tetrazol-5-yl]thiomethyl-3-cephem-4-carboxylic acid, reference compound], the “% Residue” value ([1]; listed as Zwitter ion(lyophilizate)) was 54%, the “Bioassay (potency)” value ([2]; listed as anhydrous zwitter ion compound) was 1000 µg/mL and the water solubility [13] was “high water solubility”. For the same molecule, the “stability on long shelf-life” value ([12]; free acid form (zwitter ion) or salt with a base) was “unstable in the free acid form (zwitter ion) or its salt with a base” and the antibiotic activity [14] was “excellent antibiotic activity”.
